Data taken from patent US5932742A, “Arylsulfonylimidazolone derivatives as an antitumor agent” (priority 1996, dated 1999).
In brackets after ≈: the same amount, converted by molar mass. Counter-ions that a name gives are not always drawn. Like-named read-outs stand apart in the source and are kept apart here.

Columns and labels:
Format in all cases: cell-based
[1] = system: A549 (ATCC CCL 185): human lung carcinoma; test: In vitro antitumor activity, MTT assay, A549; details: Homo sapiens, A549, 48 h
Protocol: (§1) In vitro antitumor activity against human tumor cell lines
(§2) In vitro antitumor activity of the compounds according to the present invention was determined by MTT assay method against the following human tumor cell lines:
A549 (ATCC CCL 185): human lung carcinoma
(§3) In this test, the known antineoplastic compounds, Doxorubicin and Sulofenur, were used as the comparative agents.
(§4) Each of the tumor cells was cultured in RPMI 1640 media containing 10% fetal bovine serum, 100 IU/ml penicillin and 100 μg/ml streptomycin, and then periodically subcultured once or twice per week in trypsin-EDTA solution containing 0.05% trypsin and 0.53mM EDTA.4Na. The human tumor cell line thus obtained (10,000cells/100 μl) was plated on 96-well microplate and then cultured for 24 hrs at 37° C. in a 5% CO2 incubator. Test compound was dissolved in DMSO, sterilized with 0.22 μm PVDF filter, and then serially 5-fold diluted from 40 μg/ml to 0.00256μg/ml. 100 μl of the sample solution thus prepared and RPMI 1640 medium only (control group) were added to 96-well microplate containing the human tumor cell, respectively. The final concentration of the test compound was in the range from 20 μg/ml to 0.00128 μg/ml and the concentration of DMSO was below 0.5%. The cells were cultured for 48 hrs at 37° C. in a 5% CO2 incubator. MTT(3-(4,5-Dimethylthiazole-2-yl)-e,5-diphenyltetrazoliumbromide) was dissolved in physiological saline in a concentration of 2 mg/ml and the resulting solution was filtered through 0.22 μm PTFE filter. 25 μl of MTT solution thus prepared was added to each well of 96-well microplate and incubated for additional 4 hrs at 37° C. in a 5% CO2 incubator. Then, the content of microplate was centrifuged at 1000 rpm for 10 min, and supernatant was removed by flicking. The formazan formed from MTT by mitochondrial succinate dehydrogenase was dissolved in 100 μl of DMSO. The absorbance of each well was measured at 540nm by micro ELISA reader and the cytotoxicity was calculated by dividing the absorbance of test group by the absorbance of control group. After the calculated cytotoxicity (%) was plotted, the concentration of 50% tumor growth inhibition concentration (IC50) was estimated by Linear-Regression method.

[2] = system: Colo205 (ATCC CCL 222): human colon adenocarcinoma; test: In vitro antitumor activity, MTT assay, Colo205; details: Homo sapiens
Protocol: as §1, §2
Colo205 (ATCC CCL 222): human colon adenocarcinoma
as §3, §4

[3] = system: SK-OV-3 (ATCC HTB 77): human ovarian adenocarcinoma; test: In vitro antitumor activity, MTT assay, SK-OV-3; details: Homo sapiens
Protocol: as §1, §2
SK-OV-3 (ATCC HTB 77): human ovarian adenocarcinoma
as §3, §4

[4] = system: KB (ATCC CCL 17): human epidermoid carcinoma; test: In vitro antitumor activity, MTT assay, KB; details: Homo sapiens; Table 1; MTT, 48 hrs; read-out: IC50 (KB)
Protocol: as §1, §2
KB (ATCC CCL 17): human epidermoid carcinoma
as §3, §4

[5] = system: K562 (ATCC CCL 243): human chronic myelogenous leukemia; test: In vitro antitumor activity, MTT assay, K562; details: Homo sapiens, K562, 48 h
Protocol: as §1, §2
K562 (ATCC CCL 243): human chronic myelogenous leukemia
as §3, §4

[6] = COLO 205, Table 1, 48 hrs, read-out: IC50 (Colo205)
[7] = COLO 205, Table 3, 48 hrs, read-out: IC50 (Col205)
[8] = COLO 205, Table 5, 48 hrs, read-out: IC50 (Colo205)

IC50 ([1]; Table 1)	IC50 [2, 6]	IC50 ([3]; SK-OV-3, Table 1, 48 hrs)	IC50 [4]	IC50 ([5]; Table 3, read-out: IC50 (K562))	IC50 ([1]; Table 3)	IC50 [2, 7]	IC50 ([3]; SK-OV-3, Table 3, 48 hrs)	SMILES	also measured
0.374 µg/mL (≈ 0.905 µM)	0.906 µg/mL (≈ 2.19 µM)	10.1 µg/mL (≈ 24.3 µM)	0.017 µg/mL (≈ 0.0411 µM)	–	–	–	–	CCOC(=O)N1CCc2cc(S(=O)(=O)n3cc(-c4ccccc4)[nH]c3=O)ccc21 [Example 1, 4-phenyl-1-(N-ethoxycarbonylindoline-5-sulfonyl)-2-imidazolone]	–
0.325 µg/mL (≈ 0.788 µM)	–	0.537 µg/mL (≈ 1.3 µM)	16.7 µg/mL (≈ 40.4 µM)	–	–	–	–	CCNC(=O)N1CCc2cc(S(=O)(=O)n3cc(-c4ccccc4)[nH]c3=O)ccc21 [Example 2, 4-phenyl-1-(N-ethylcarbamoylindoline-5-sulfonyl)-2-imidazolone]	–
0.111 µg/mL (≈ 0.26 µM)	0.265 µg/mL (≈ 0.621 µM)	0.509 µg/mL (≈ 1.19 µM)	0.006 µg/mL (≈ 0.0141 µM)	–	–	–	–	CCNC(=O)N1c2ccc(S(=O)(=O)n3cc(-c4ccccc4)[nH]c3=O)cc2CC1C (stereo not shown) [Example 3, 4-phenyl-1-(N-ethylcarbamoyl-2-methylindoline-5-sulfonyl)-2-imidazolone]	–
0.09 µg/mL (≈ 0.204 µM)	0.519 µg/mL (≈ 1.18 µM)	0.146 µg/mL (≈ 0.331 µM)	0.105 µg/mL (≈ 0.238 µM)	–	–	–	–	CCCNC(=O)N1c2ccc(S(=O)(=O)n3cc(-c4ccccc4)[nH]c3=O)cc2CC1C (stereo not shown) [Example 5, 4-phenyl-1-(N-propylcarbamoyl-2-methylindoline-5-sulfonyl)-2-imidazolone]	–
0.105 µg/mL (≈ 0.238 µM)	0.102 µg/mL (≈ 0.232 µM)	1.07 µg/mL (≈ 2.43 µM)	0.162 µg/mL (≈ 0.368 µM)	–	–	–	–	CC(C)NC(=O)N1c2ccc(S(=O)(=O)n3cc(-c4ccccc4)[nH]c3=O)cc2CC1C (stereo not shown) [Example 7, 4-phenyl-1-(N-isopropylcarbamoyl-2-methylindoline-5-sulfonyl)-2-imidazolone]	–
0.02 µg/mL (≈ 0.0454 µM)	0.549 µg/mL (≈ 1.25 µM)	2.67 µg/mL (≈ 6.07 µM)	0.002 µg/mL (≈ 0.00454 µM)	–	–	–	–	CC(C)(C)NC(=O)N1CCc2cc(S(=O)(=O)n3cc(-c4ccccc4)[nH]c3=O)ccc21 [Example 8, 4-phenyl-1-(N-t-butylcarbamoylindoline-5-sulfonyl)-2-imidazolone]	–
0.528 µg/mL (≈ 1.08 µM)	0.651 µg/mL (≈ 1.33 µM)	0.106 µg/mL (≈ 0.216 µM)	0.045 µg/mL (≈ 0.0917 µM)	–	–	–	–	O=C(c1ccc([N+](=O)[O-])cc1)N1CCc2cc(S(=O)(=O)n3cc(-c4ccccc4)[nH]c3=O)ccc21 [Example 9, 4-phenyl-1-[N-(4-nitrobenzoyl)indoline-5-sulfonyl]-2-imidazolone]	–
0.23 µg/mL	0.334 µg/mL	0.529 µg/mL	0.0001 µg/mL	–	–	–	–	Nc1ccc(C(=O)N2CCc3cc(S(=O)(=O)n4cc(-c5ccccc5)[nH]c4=O)ccc32)cc1 [Example 10, 4-phenyl-1-[N-(4-aminobenzoyl)indoline-5-sulfonyl]-2-imidazolone.HCl]	–
0.199 µg/mL (≈ 0.447 µM)	0.644 µg/mL (≈ 1.45 µM)	1.22 µg/mL (≈ 2.73 µM)	0.028 µg/mL (≈ 0.0629 µM)	–	–	–	–	O=C(c1ccccc1)N1CCc2cc(S(=O)(=O)n3cc(-c4ccccc4)[nH]c3=O)ccc21 [Example 13, 4-phenyl-1-(N-benzoylindoline-5-sulfonyl)-2-imidazolone]	–

Second part, the molecule before the results:

SMILES	IC50 ([1]; Table 1)	IC50 [2, 6]	IC50 ([3]; SK-OV-3, Table 1, 48 hrs)	IC50 [4]	IC50 ([5]; Table 3, read-out: IC50 (K562))	IC50 ([1]; Table 3)	IC50 [2, 7]	IC50 ([3]; SK-OV-3, Table 3, 48 hrs)	also measured
CC1Cc2cc(S(=O)(=O)n3cc(-c4ccccc4)[nH]c3=O)ccc2N1C(=O)c1ccc([N+](=O)[O-])cc1 (stereo not shown) [Example 11, 4-phenyl-1-[N-(4-nitrobenzoyl)-2-methylindoline-5-sulfonyl]-2-imidazolone]	0.234 µg/mL (≈ 0.464 µM)	1.11 µg/mL (≈ 2.2 µM)	0.453 µg/mL (≈ 0.898 µM)	0.64 µg/mL (≈ 1.27 µM)	–	–	–	–	–
O=C(NC1CCCCC1)N1CCc2cc(S(=O)(=O)N3CC(c4ccccc4)NC3=O)ccc21 (stereo not shown) [Example 33, 4-phenyl-1-(N-cyclohexylcarbamoylindoline-5-sulfonyl)-4,5-dihydro-2-imidazolone]	–	–	–	–	0.0037 µg/mL (≈ 0.0079 µM)	0.003 µg/mL (≈ 0.0064 µM)	0.172 µg/mL (≈ 0.367 µM)	0.043 µg/mL (≈ 0.0918 µM)	–
Nc1ccc(NC(=O)N2CCc3cc(S(=O)(=O)N4CC(c5ccccc5)NC4=O)ccc32)cc1 (stereo not shown) [Example 35, 4-phenyl-1-[N-(4-aminophenyl)carbamoylindoline-5-sulfonyl)-4,5-dihydro-2-imidazolone]	–	–	–	–	0.004 µg/mL (≈ 0.00838 µM)	0.286 µg/mL (≈ 0.599 µM)	3.24 µg/mL (≈ 6.78 µM)	0.763 µg/mL (≈ 1.6 µM)	–
COc1ccc(NC(=O)N2CCc3cc(S(=O)(=O)N4CC(c5ccccc5)NC4=O)ccc32)cc1 (stereo not shown) [Example 36, 4-phenyl-1-[N-(4-methoxyphenyl)carbamoylindoline-5-sulfonyl]-4,5-dihydro-2-imidazolone]	–	–	–	–	6.92 µg/mL (≈ 14 µM)	0.18 µg/mL (≈ 0.365 µM)	0.391 µg/mL (≈ 0.794 µM)	0.047 µg/mL (≈ 0.0954 µM)	–
CSc1ccc(NC(=O)N2CCc3cc(S(=O)(=O)N4CC(c5ccccc5)NC4=O)ccc32)cc1 (stereo not shown) [Example 37]	–	–	–	–	> 20 µg/mL	2.34 µg/mL (≈ 4.6 µM)	0.71 µg/mL (≈ 1.4 µM)	0.716 µg/mL (≈ 1.41 µM)	–
CNC(=S)N1CCc2cc(S(=O)(=O)N3CC(c4ccccc4)NC3=O)ccc21 (stereo not shown) [Example 38, 4-phenyl-1-(N-methylthiocarbamoylindoline-5-sulfonyl)-4,5-dihydro-2-imidazolone]	–	–	–	–	0.00452 µg/mL (≈ 0.0109 µM)	0.092 µg/mL (≈ 0.221 µM)	0.65 µg/mL (≈ 1.56 µM)	1.98 µg/mL (≈ 4.75 µM)	–
CCNC(=S)N1CCc2cc(S(=O)(=O)N3CC(c4ccccc4)NC3=O)ccc21 (stereo not shown) [Example 39, 4-phenyl-1-(N-ethylthiocarbamoylindoline-5-sulfonyl)-4,5-dihydro-2-imidazolone]	–	–	–	–	0.567 µg/mL (≈ 1.32 µM)	0.438 µg/mL (≈ 1.02 µM)	9.11 µg/mL (≈ 21.2 µM)	3.17 µg/mL (≈ 7.36 µM)	–
CCCCNC(=S)N1CCc2cc(S(=O)(=O)N3CC(c4ccccc4)NC3=O)ccc21 (stereo not shown) [Example 41, 4-phenyl-1-(N-butylthiocarbamoylindoline-5-sulfonyl)-4 5-dihydro-2-imidazolone]	–	–	–	–	2.05 µg/mL (≈ 4.48 µM)	0.584 µg/mL (≈ 1.27 µM)	2.4 µg/mL (≈ 5.23 µM)	0.897 µg/mL (≈ 1.96 µM)	–
O=C1NC(c2ccccc2)CN1S(=O)(=O)c1ccc2c(c1)CCN2C(=S)Nc1ccccc1 (stereo not shown) [Example 42, 4-phenyl-1-(N-phenylthiocarbamoylindoline-5-sulfonyl)-4,5-dihydro-2-imidazolone]	–	–	–	–	0.017 µg/mL (≈ 0.0355 µM)	0.095 µg/mL (≈ 0.198 µM)	2.14 µg/mL (≈ 4.46 µM)	10.5 µg/mL (≈ 21.9 µM)	–
COc1ccccc1NC(=O)N1CCc2cc(S(=O)(=O)N3CC(c4ccccc4)NC3=O)ccc21 (stereo not shown) [Example 44, 4-phenyl-1-[N-(2-methoxyphenyl)carbamoylindoline-5-sulfonyl]-4,5-dihydro-2-imidazolone]	–	–	–	–	0.29 µg/mL (≈ 0.589 µM)	0.135 µg/mL (≈ 0.274 µM)	1.47 µg/mL (≈ 2.97 µM)	0.273 µg/mL (≈ 0.554 µM)	–
Cc1ccc(NC(=O)N2CCc3cc(S(=O)(=O)N4CC(c5ccccc5)NC4=O)ccc32)cc1 (stereo not shown) [Example 45, 4-phenyl-1-[N-(4-methylphenyl)carbamoylindoline-5-sulfonyl]-4,5-dihydro-2-imidazolone]	–	–	–	–	1.03 µg/mL (≈ 2.17 µM)	0.311 µg/mL (≈ 0.653 µM)	3.27 µg/mL (≈ 6.85 µM)	0.813 µg/mL (≈ 1.71 µM)	–
O=C1NC(c2ccccc2)CN1S(=O)(=O)c1ccc2c(c1)CCN2C(=S)Nc1ccc(F)cc1 (stereo not shown) [Example 46, 4-phenyl-1-[N-(4-fluorophenyl)thiocarbamoylindoline-5-sulfonyl]-4,5-dihydro-2-imidazolone]	–	–	–	–	3.94 µg/mL (≈ 7.94 µM)	3.29 µg/mL (≈ 6.63 µM)	8.74 µg/mL (≈ 17.6 µM)	3.13 µg/mL (≈ 6.3 µM)	–
C[C@H](N)C(=O)Nc1ccc(C(=O)N2CCc3cc(S(=O)(=O)N4C[C@H](c5ccccc5)NC4=O)ccc32)cc1 [Example 66, (S)-(+)-4-phenyl-1-[N-{4-(2-aminopropanoyl)aminobenzoyl}indoline-5-sulfonyl]-4,5-dihydro-2-imidazolone.HCl]	–	–	–	–	–	–	–	–	IC50 ([5]; Table 5, read-out: IC50 (K562)): 3.57 µg/mL; IC50 ([1]; Table 5): 0.112 µg/mL; IC50 [2, 8]: 0.77 µg/mL; IC50 ([3]; SK-OV-3, Table 5, 48 hrs): 0.259 µg/mL
NCC(=O)Nc1ccc(C(=O)N2CCc3cc(S(=O)(=O)N4C[C@H](c5ccccc5)NC4=O)ccc32)cc1 [Example 67, (S)-(+)-4-phenyl-1-[N-{4-(2-aminoacetyl)aminobenzoyl}indoline-5-sulfonyl]-4,5-dihydro-2-imidazolone.HCl]	–	–	–	–	–	–	–	–	IC50 ([5]; Table 5, read-out: IC50 (K562)): 1.32 µg/mL; IC50 ([1]; Table 5): 0.254 µg/mL; IC50 [2, 8]: 0.971 µg/mL; IC50 ([3]; SK-OV-3, Table 5, 48 hrs): 0.855 µg/mL
